Results as given in ChEMBL document CHEMBL1155440, “1-(5-carboxyindol-1-yl)propan-2-one inhibitors of human cytosolic phospholipase A(2)alpha with reduced lipophilicity: synthesis, biological activity, metabolic stability, solubility, bioavailability, and topical in vivo activity” (J Med Chem, 2010).
Active and inactive are the calls of the source. The rule behind the calls is not given here.

Tests used:
[1] = system: Mus musculus; test: Antiinflammatory activity in topically dosed BALB/c mouse assessed as inhibition of benzalkonium chloride-induced ear edema administered after 10 mins of benzalkonium chloride challenge measured after 1 to 7 hrs of induction of dermatitis; format: functional, organism-based
[2] = Partition coefficient, log P at 5 mM by reverse phase HPLC analysis; format: physicochemical; conditions: octanol/water
[3] = system: Mus musculus; test: Antiinflammatory activity in BALB/c mouse assessed as inhibition of benzalkonium chloride-induced ear edema at 0.1 mg/ear administered topically after 10 mins of benzalkonium chloride challenge measured after 7 hrs of induction of dermatitis; format: functional
[4] = Inhibition of TPA-induced cPLA2alpha in human platelets assessed as inhibition of arachidonic acid production after 60 mins by UV-reverse phase HPLC analysis; conditions: 1 h
[5] = target: T1, 85/88 kDa calcium-independent phospholipase A2 (Rattus norvegicus) (UniProt P97570); test: Inhibition of Sprague-Dawley rat brain iPLA2 assessed as inhibition of substrate cleavage at 10 uM after 60 mins by HPLC analysis
T1 sequence (whole entry): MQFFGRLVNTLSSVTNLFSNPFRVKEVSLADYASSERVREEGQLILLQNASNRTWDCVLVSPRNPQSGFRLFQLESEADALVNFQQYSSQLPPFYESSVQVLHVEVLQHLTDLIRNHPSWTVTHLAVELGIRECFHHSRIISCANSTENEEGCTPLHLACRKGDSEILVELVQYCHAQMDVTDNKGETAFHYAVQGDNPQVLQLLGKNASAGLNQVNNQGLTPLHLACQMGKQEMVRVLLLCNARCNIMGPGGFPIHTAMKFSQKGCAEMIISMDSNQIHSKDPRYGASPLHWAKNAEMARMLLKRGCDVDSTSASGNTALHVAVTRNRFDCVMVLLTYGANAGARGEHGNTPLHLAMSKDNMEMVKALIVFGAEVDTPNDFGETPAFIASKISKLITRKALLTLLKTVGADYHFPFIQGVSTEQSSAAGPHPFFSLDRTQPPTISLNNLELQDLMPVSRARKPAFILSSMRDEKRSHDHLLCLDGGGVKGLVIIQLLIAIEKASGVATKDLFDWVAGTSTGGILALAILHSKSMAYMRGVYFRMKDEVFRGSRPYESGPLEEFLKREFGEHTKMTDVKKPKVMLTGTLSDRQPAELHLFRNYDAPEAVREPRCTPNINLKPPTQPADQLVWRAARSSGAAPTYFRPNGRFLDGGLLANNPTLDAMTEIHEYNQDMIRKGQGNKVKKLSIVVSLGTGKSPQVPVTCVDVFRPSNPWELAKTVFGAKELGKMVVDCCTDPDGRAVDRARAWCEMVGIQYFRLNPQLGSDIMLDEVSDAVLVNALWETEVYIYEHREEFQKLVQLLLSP

[6] = system: Mus musculus; test: Antiinflammatory activity in BALB/c mouse assessed as inhibition of benzalkonium chloride-induced ear edema at 0.01 mg/ear administered topically after 10 mins of benzalkonium chloride challenge measured after 5 to 7 hrs of induction of dermatitis; format: functional, organism-based
[7] = system: Mus musculus; test: Antiinflammatory activity in BALB/c mouse assessed as inhibition of benzalkonium chloride-induced ear edema at 0.1 to 1 mg/ear administered topically after 10 mins of benzalkonium chloride challenge measured after 5 hrs of induction of dermatitis; format: functional, organism-based
[8] = system: Mus musculus; test: Antiinflammatory activity in BALB/c mouse assessed as inhibition of benzalkonium chloride-induced ear edema at 0.005 mg/ear administered topically after 10 mins of benzalkonium chloride challenge measured after 7 hrs of induction of dermatitis; format: functional
[9] = target: Phospholipase A2, major isoenzyme (Sus scrofa) (UniProt P00592); test: Inhibition of pig pancreas group 1B sPLA2 assessed as inhibition of POPG cleavage at 10 uM after 30 mins by HPLC analysis
Chain of Phospholipase A2, major isoenzyme (Sus scrofa) (P00592 23-146 limits assumed): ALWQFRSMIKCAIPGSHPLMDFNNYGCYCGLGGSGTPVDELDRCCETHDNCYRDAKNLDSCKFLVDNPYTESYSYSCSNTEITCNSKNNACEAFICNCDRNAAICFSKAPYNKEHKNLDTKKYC

[10] = system: Mus musculus; test: Antiinflammatory activity in BALB/c mouse assessed as inhibition of benzalkonium chloride-induced ear edema at 0.1 to 1 mg/ear administered topically after 10 mins of benzalkonium chloride challenge measured after 7 hrs of induction of dermatitis; format: functional, organism-based
[11] = system: Mus musculus; test: Antiinflammatory activity in BALB/c mouse assessed as inhibition of benzalkonium chloride-induced ear edema at 0.1 to 1 mg/ear administered topically after 10 mins of benzalkonium chloride challenge measured after 1 hr of induction of dermatitis; format: functional, organism-based

CC(C)C(=O)c1cn(CC(=O)COc2ccc(Oc3ccccc3)cc2)c2ccc(C(=O)O)cc12
inhibition [1]: Dose-dependent effect
logP at 5000 µM [2]: 3.5
inhibition (INH) [3]: 84%
IC50 [4]: 15 nM
inhibition [5]: inactive
inhibition [6]: inactive
inhibition [7]: Active
inhibition (INH) [8]: 90%
inhibition [9]: inactive
inhibition [10]: Active
inhibition [11]: Active
